According to PubChem BioAssay (NCI):
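Interpolation was linear, between the two tested concentrations surrounding the appropriate level; five concentrations were tested over 48 hours in 96-well plates. Abbreviation: GI50, concentration required for 50% inhibition of growth. TGI marks complete inhibition of growth.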

Key:
Test in all cases: DTP human tumour cell line panel, 48 h
[1] = system: 786-0 renal
[2] = system: A498 renal
[3] = system: A549 NSCLC
[4] = system: ACHN renal
[5] = system: BT-549 breast
[6] = system: CAKI-1 renal
[7] = system: CCRF-CEM leukemia
[8] = system: COLO 205 colon
[9] = system: DU-145 prostate
[10] = system: EKVX NSCLC
[11] = system: HCC-2998 colon
[12] = system: HCT-116 colon
[13] = system: HCT-15 colon
[14] = system: HL-60(TB) leukemia
[15] = system: HOP-62 NSCLC
[16] = system: HOP-92 NSCLC
[17] = system: HS 578T breast
[18] = system: HT29 colon
[19] = system: IGROV1 ovarian
[20] = system: K-562 leukemia
[21] = system: KM12 colon
[22] = system: LOX IMVI melanoma
[23] = system: M14 melanoma
[24] = system: MALME-3M melanoma
[25] = system: MCF7 breast
[26] = system: MDA-MB-231 breast
[27] = system: MDA-MB-435
[28] = system: MDA-MB-468 breast
[29] = system: MOLT-4 leukemia
[30] = system: NCI-H226 lung
[31] = system: NCI-H23 lung
[32] = system: NCI-H460 lung
[33] = system: NCI-H522 lung
[34] = system: NCI/ADR-RES ovarian
[35] = system: OVCAR-3 ovarian
[36] = system: OVCAR-4 ovarian
[37] = system: OVCAR-5 ovarian
[38] = system: OVCAR-8 ovarian
[39] = system: PC-3 prostate
[40] = system: RPMI-8226 leukemia
[41] = system: RXF 393 renal
[42] = system: SF-268 CNS
[43] = system: SF-295 CNS
[44] = system: SF-539 CNS
[45] = system: SK-MEL-2 melanoma
[46] = system: SK-MEL-28 melanoma
[47] = system: SK-MEL-5 melanoma
[48] = system: SK-OV-3 ovarian
[49] = system: SN12C renal
[50] = system: SNB-19 CNS
[51] = system: SNB-75 CNS
[52] = system: SW-620 colon
[53] = system: T-47D breast
[54] = system: TK-10 renal
[55] = system: U251 CNS
[56] = system: UACC-257 melanoma
[57] = system: UACC-62 melanoma
[58] = system: UO-31 renal

CN(C)c1nc(NCCNS(=O)(=O)c2ccc(C(=O)/C=C/c3ccc(Cl)cc3)cc2)nc(Nc2ccc(F)cc2)n1
GI50 [1]: 7.28 µM
TGI [1]: 20.2 µM
GI50 [2]: 10.5 µM
TGI [2]: 23.1 µM
GI50 [3]: 4.52 µM
TGI [3]: 17.4 µM
GI50 [4]: 4.2 µM
TGI [4]: 15.3 µM
GI50 [5]: 11.6 µM
TGI [5]: 23.9 µM
GI50 [6]: 4.93 µM
TGI [6]: 19.5 µM
GI50 [7]: 3.75 µM
TGI [7]: > 100 µM
GI50 [8]: 5.96 µM
TGI [8]: 18.7 µM
GI50 [9]: 9.7 µM
TGI [9]: 21.8 µM
GI50 [10]: 3.11 µM
TGI [10]: 14.7 µM
GI50 [11]: 2480 nM
TGI [11]: 6.9 µM
GI50 [12]: 1660 nM
TGI [12]: 3.11 µM
GI50 [13]: 4.62 µM
TGI [13]: 16.9 µM
GI50 [14]: 4.39 µM
TGI [14]: > 100 µM
GI50 [15]: 12.5 µM
TGI [15]: 27.5 µM
GI50 [16]: 3.83 µM
TGI [16]: 14.7 µM
GI50 [17]: 11.4 µM
TGI [17]: 58.1 µM
GI50 [18]: 2150 nM
TGI [18]: 5.72 µM
GI50 [19]: 8.58 µM
TGI [19]: 21.4 µM
GI50 [20]: 3.29 µM
TGI [20]: > 100 µM
GI50 [21]: 2970 nM
TGI [21]: 9.11 µM
GI50 [22]: 2740 nM
TGI [22]: 9.16 µM
GI50 [23]: 4.14 µM
TGI [23]: 15.3 µM
GI50 [24]: 12.8 µM
TGI [24]: 26.4 µM
GI50 [25]: 2280 nM
TGI [25]: 6.33 µM
GI50 [26]: 4.72 µM
TGI [26]: 17.4 µM
GI50 [27]: 3.8 µM
TGI [27]: 14 µM
GI50 [28]: 3.71 µM
TGI [28]: 14.8 µM
GI50 [29]: 3.07 µM
TGI [29]: > 100 µM
GI50 [30]: 6.14 µM
TGI [30]: 24.3 µM
GI50 [31]: 10.7 µM
TGI [31]: 23.4 µM
GI50 [32]: 3.38 µM
TGI [32]: 13.8 µM
GI50 [33]: 7.1 µM
TGI [33]: 22 µM
GI50 [34]: 5.49 µM
TGI [34]: 18.4 µM
GI50 [35]: 3.16 µM
TGI [35]: 11.9 µM
GI50 [36]: 5.92 µM
TGI [36]: 22 µM
GI50 [37]: 10.7 µM
TGI [37]: 22.6 µM
GI50 [38]: 10.2 µM
TGI [38]: 23.7 µM
GI50 [39]: 3.74 µM
TGI [39]: 14.1 µM
GI50 [40]: 2470 nM
TGI [40]: 7.11 µM
GI50 [41]: 3.09 µM
TGI [41]: 15.1 µM
GI50 [42]: 6.21 µM
TGI [42]: 23.5 µM
GI50 [43]: 6.11 µM
TGI [43]: 19.8 µM
GI50 [44]: 10.1 µM
TGI [44]: 22 µM
GI50 [45]: 5.47 µM
TGI [45]: 19.5 µM
GI50 [46]: 6.77 µM
TGI [46]: 20.1 µM
GI50 [47]: 5.89 µM
TGI [47]: 18.8 µM
GI50 [48]: 11.5 µM
TGI [48]: 27.7 µM
GI50 [49]: 3.79 µM
TGI [49]: 15.9 µM
GI50 [50]: 9.18 µM
TGI [50]: 21.3 µM
GI50 [51]: 5.6 µM
TGI [51]: 25.7 µM
GI50 [52]: 2780 nM
TGI [52]: 11 µM
GI50 [53]: 4.37 µM
TGI [53]: 18 µM
GI50 [54]: 11.7 µM
TGI [54]: 30.3 µM
GI50 [55]: 5.25 µM
TGI [55]: 18.6 µM
GI50 [56]: 8.36 µM
TGI [56]: 21.8 µM
GI50 [57]: 5.41 µM
TGI [57]: 18.7 µM
GI50 [58]: 4 µM
TGI [58]: 16.6 µM
